Measured values taken from patent US10111847B2, “Compounds and methods for modulating vascular injury” (The Regents of the University of California, priority 2012, dated 2018).

Columns and labels:
IKKα/β subunit = assay: TNFα induced phosphorylation of IKKα/β in sv-ECs, western blot; type: cell-based, human; conditions: 100 nm, 30 min; TNFα 1 ng/ml 15 min
Description: Mar-1. VSMCs and ECs were lysed in buffer (20 mM Tris-Hcl, 137 mM NaCl, 10% Glycerol, 1% NP-40) with protease and phosphatase inhibitors (Halt inhibitor capsules, Pierce, Inc) by sonication on ice. The lysates were instantly snap frozen in liquid nitrogen and thawed back later for western blotting. After centrifugation (15,000 g for 20 minutes), the whole cell extract (supernatant) was collected and was heated at 100° C. in Laemlli buffer for 6 minutes. Lysates were run on Mini-Protean TGX gels
(Biorad) and transferred on PVDF membranes which were probed with appropriate primary and secondary antibodies and visualized for quantitation using q-dot nanocrystals (Life Technologies, Inc).
Cells were pretreated with 100 nm of 7S/7R-Maresin-1 for 30 min, followed by TNFα (10 ng/ml for VSMC and 1 ng/ml for EC) for 15 min. Whole cell lysates were collected and probed for pan and phospho IKK (Cell Signaling Inc.).
FIG. 18. IKK-phospho and total IKK western blotting image is representative of three independent experiments. Bar graph represents net quantitative densitometry analysis. N=3. P≤0.05, One-way ANOVA with Dunnett's post hoc test. *: P≤0.05 compared to control, unpaired t-test. †: P≤0.05 compared to TNFα, unpaired t-test. Error bars: SEM.

[1] = tested on: Stat1, C/EBP, SMAD, SATB1, EGR; assay: Transcription factor multiplex array in TNF-α-stimulated VSMC; type: cell-based, human; conditions: 10 nM; TNF-α 10 ng/ml 18 hours
Description: Cells are plated onto 96-well plates and treated with 10 ng/ml TNF-α in the presence or absence of 10 nM RvD2 for 18 hours and then nuclear extracts are prepared. Transcription factor profiling is performed using a multiplex array according to the manufacturer's instructions (Signosis Inc., Sunnyvale, Calif.).
FIG. 11: RvD1 and RvD2 modulate activity of multiple transcription factors in TNF-α-stimulated VSMC. VSMCs were treated with TNF-α (10 ng/ml) for 18 hours and nuclear extracts were prepared. Transcription factor profiling was performed using a multiplex array.

rabbit femoral arteries = assay: Rabbit femoral artery balloon injury, acute response at 3 days; type: in vivo, New Zealand White Rabbits
Description: All animal experiments are performed under a protocol approved by University of California San Francisco Animal Care Committee. New Zealand White Rabbits (NZWR, Western Oregon Rabbit Company, Philomath, Oreg.) weighing 3 to 5 kg and maintained on a normal chow diet are used in all experiments. Animals are anesthetized for surgical procedures with intramuscular injection of ketamine (25 mg/kg) and xylazine (5 mg/kg), and maintained with inhalation of isoflurane. The balloon injury model is made as described by Conte et al. “Efficient repopulation of denuded rabbit arteries with autologous genetically modified endothelial cells,” Circulation. 1994; 89:2161-2169. Rabbits undergo bilateral external iliac and femoral artery injury with 2F Fogarty balloon catheter (Applied Medical Resources Corp. Rancho Santa Margarita, Calif.). After balloon injury RvD2 (10 nM, Cayman chemical, Ann Arbor, Mich.) is infused to luminal area of the right femoral artery and control vehicle (normal saline with 0.1% ethanol) is infused to the left femoral artery, and then left undisturbed for 20 minutes. For evaluation of acute effects the rabbits are euthanized at 3 days after injury by intravenous overdose of sodium Nembutal. The femoral arteries are harvested and cryosection is made for immunohistochemistry, and total RNA from treated and control tissue is isolated. For evaluation of subacute responses regarding intimal hyperplasia the rabbits are euthanized at 28 days after injury and the tissue is perfusion-fixed in 10% formalin and processed as described by Conte et al. Arterioscler Thromb Vasc Biol. 2005; 25:2081-2087.
All the immunofluorescent staining is completed on 6-μm-thick frozen sections fixed by ice cold acetone for 10 minutes. Goat anti-mouse IgG conjugated with Alexa Fluor 488 or 568 (1:100, respectively, Invitrogen) is selected as secondary antibody. Anti-Ki67 (1:100, NCL-L-Ki67-MM1, Novocastra Laboratories, Newcastle upon Tyne, UK) is utilized for cell proliferation detection. […] The proportion of Ki67 is calculated by absolute positive cell number divided by DAPI positive nuclei. Leukocyte infiltration index is calculated as number of nuclei in CD45 positive area divided by total number of DAPI positive nuclei.
RvD1. […] Fluorescence was detected with TRITC filter allowing the detection of the DHE emission wavelength of 590-620 nm. The fluorescence lamp gain is standardized for all images and analyses. Fluorescence quantitation is performed using ImageJ analysis software (National Institute of Health, Bethesda, Md.). For VSMC the fluorescence intensity is determined for the DHE-stained control cells (no treatment control) from each experimental group and then individual treated cells from the same group are normalized to the corresponding value. […]

| SMILES | TNFα induced phosphorylation of IKKα/β subunit in human sv-ECs (IKKα/β subunit) | transcription factor activity (Stat1, C/EBP, SMAD, SATB1, EGR) vs TNF-α-stimulated controls [1] | Cell proliferation (Ki-67 staining index), % inhibition vs control (rabbit femoral arteries; 10 nM intraluminal 20 minutes, 3 days after injury, P<0.01) [%] | leukocyte infiltration (CD45 staining), % inhibition (rabbit femoral arteries; 10 nM intraluminal 20 minutes, 3 days after injury, P<0.05) [%] | TNF-α, MCP-1, and IL-1α expression in treated arteries vs vehicle (qPCR) (rabbit femoral arteries; 10 nM intraluminal, 3 days after injury) | injury-induced ROS production (DHE staining), % inhibition (rabbit femoral arteries; rabbit arteries 3 days after balloon injury, P<0.05) [%] |
| --- | --- | --- | --- | --- | --- | --- |
| CC/C=C\C/C=C\C[C@H](O)\C=C/C=C/C=C/[C@@H](O)C/C=C\CCC(=O)O [7S-Maresin-1, 7S,14R-dihydroxydocosa-4Z,8E,10Z,12Z,16Z,19Z-hexaenoic acid] | Reduce | – | – | – | – | – |
| CC/C=C\C[C@H](O)[C@H](O)/C=C/C=C/C=C\C=C\[C@@H](O)C/C=C\CCC(=O)O [RvD2, resolvin D2] | – | significantly downregulated | 51 | 41 | significant reductions | 43 |
